Measurements taken from patent US12582132B2, “Germination/sprouting and fruit ripening regulators” (The United States of America, as represented by the …, priority 2021, dated 2026).
“Also recorded” adds a separate entry of the source.

Legend:
Type in all cases: in vivo
strawberry fruit = assay: CAD analogs: ability to hasten strawberry fruit ripening; details: 50 μM in 0.1% TRITON-X 100, applied at the same timing as CAD; compared with CAD
Procedure: Chemicals with similarity to CAD were tested for their ability to hasten fruit ripening.
To the inventors' knowledge, no chemical closely related to CAD is currently commercially available. A few analogs with 88-90% similarity to CAD were found in the ChemBridge database used in Example 1.
This compound has 90% similarity to CAD.

[1] = system: Strawberry fruit (Fragaria x ananassa CV. Albion); assay: Treatment of strawberry fruit by dipping: fruit ripening; details: for strawberry fruit ripening compared to mock-treated strawberries: 10 μM CAD or 1 mM ABA in 0.1% TRITON X-100, dipped 20 seconds eight days after pollination; for strawberry appearance (colour), FIG. 2A: 7 DAT; for strawberry appearance (colour), FIG. 2A / strawberry appearance (colour), FIG. 2B / strawberry appearance (colour), FIG. 2C / strawberry appearance (colour), FIG. 2D / strawberry appearance (colour), FIG. 2E / strawberry appearance (colour), FIG. 2F: 8 day old fruit, 10 μM CAD or 1 mM ABA in 0.1% TRITON-X100; for strawberry appearance (colour), FIG. 2B: 8 DAT; for strawberry appearance (colour), FIG. 2C: 9 DAT; for strawberry appearance (colour), FIG. 2D: 10 DAT; for strawberry appearance (colour), FIG. 2E: 11 DAT; for strawberry appearance (colour), FIG. 2F: 12 DAT
Procedure: Strawberry plants (Fragaria x ananassa CV. Albion) were grown in a greenhouse at 28° C. and 14-hour light/10-hour dark conditions. […] Fruits were allowed to continue growing on the plants. FIG. 1 depicts images of strawberry fruit development under standard conditions.
FIG. 2A to FIG. 2F depict images of strawberries treated with either 10 μM CAD in 0.1% TRITON X-100 surfactant; 1 mM ABA in 0.1% TRITON X-100 surfactant; or buffer (0.1% TRITON X-100 surfactant) without chemical (mock-treated). […] The CAD dosage was lower than that of ABA (10 μM vs. 1 mM), and CAD stimulated fruit ripening faster than did ABA. […] In contrast, ABA-treated fruit started to turn red 9 DAT, and reached full red 11 DAT.

[2] = system: Cherry tomato fruits at mature green stage; assay: Treatment of cherry tomatoes by injection: fruit ripening; details: for cherry tomato appearance (colour), FIG. 3B / FIG. 3D: 6 DAT, injected with 10 μM CAD or 200 μM ABA in 0.1% TRITON-X100; for cherry tomato ripening stage: six days after treatment, injected with 50 μM CAD or 200 μM ABA in 0.1% TRITON X-100
Procedure: Cherry tomato fruits at mature green stage were purchased from Butler's Orchard (Germantown, Maryland, USA). Each fruit was injected with either 50 μM CAD in 0.1% TRITON X-100 surfactant; 200 μM ABA in 0.1% TRITON X-100 surfactant; or buffer alone (0.1% TRITON X-100 surfactant). […] FIG. 3A and FIG. 3B show images of cherry tomatoes injected with 10 μM CAD. FIG. 3C and FIG. 3D show images of cherry tomatoes injected with 200 μM ABA. FIG. 3E and FIG. 3F show images of cherry tomatoes injected with buffer alone. FIG. 3G and FIG. 3H show images of untreated tomatoes. FIG. 3A; FIG. 3C; FIG. 3E; and FIG. 3G show images taken the day of treatment. FIG. 3B; FIG. 3D; […]; and FIG. 3H show images taken 6 DAT.

[3] = system: strawberries on the plant; assay: Effect of CAD injection on strawberry fruit ripening; details: for strawberry appearance (colour), FIG. 4A: 8 DAT; for strawberry appearance (colour), FIG. 4A / strawberry appearance (colour), FIG. 4B / strawberry appearance (colour), FIG. 4C / strawberry appearance (colour), FIG. 4D / strawberry appearance (colour), FIG. 4E / strawberry appearance (colour), FIG. 4F: 7 day old fruit, 10 μM CAD or 200 μM ABA in 0.1% TRITON-X100, injected; for strawberry appearance (colour), FIG. 4B: 9 DAT; for strawberry appearance (colour), FIG. 4C: 10 DAT; for strawberry appearance (colour), FIG. 4D: 11 DAT; for strawberry appearance (colour), FIG. 4E: 12 DAT; for strawberry appearance (colour), FIG. 4F: 13 DAT
Procedure: While still on the plant, strawberries were injected with either 10 μM CAD in 0.1% TRITON-X 100 surfactant; 200 μM ABA in 0.1% TRITON-X 100 surfactant; or 0.1% TRITON-X 100 surfactant. The strawberries were allowed to remain on the plant, and removed and photographed at 8 DAT, 9 DAT, 10 DAT, 11 DAT, 12 DAT, and 13 DAT. FIG. 4A to FIG. 4F depict images of strawberries treated with either 10 μM CAD in 0.1% TRITON-X 100 surfactant; 200 μM ABA in 0.1% TRITON-X 100 surfactant; or 0.1% TRITON-X 100 surfactant alone (mock); or no treatment.

[4] = system: Strawberry seeds (Fragaria x ananassa CV. Albion); assay: Chemical library screening for delaying strawberry seed germination; details: about 5 μM chemical in 0.1% TRITON X-100; strawberry seeds in 96 well plates, 25° C., vs non-treated or mock-treated seeds
Procedure: A chemical library containing 10,000 small compounds (˜300 Dalton) was purchased from ChemBridge Co (San Diego, California, USA). Strawberry seeds (Fragaria x ananassa CV. Albion) were purchased from Johnny's Seeds (Fairfield, Maine, USA). Five to six seeds were sterilized with 70% ethanol and added to each well of 96 well ELISA plates containing about 5 μM chemical 0.1% TRITON X-100 surfactant (polyethylene glycol tert-octylphenyl ether). One mM abscisic acid (ABA), a hormone that inhibits seed germination, and gibberellic acid (GA3), a hormone that promotes seed germination, were used as controls. Each experiment was conducted in triplicate. Plates were kept in a growth chamber at 25° C. under dark, and a 14 hour light/10 hour dark cycle was added after seed germination was observed.

[5] = 10 μM CAD or 1 mM ABA in 0.1% TRITON X-100, dipped eight days after pollination, days after treatment

SMILES	effect on strawberry fruit ripening (strawberry fruit)	strawberry fruit ripening compared to mock-treated strawberries [1]	fruit reached full red [1, 5] [DAT]	strawberry appearance (colour), FIG. 2A [1]	strawberry appearance (colour), FIG. 2B [1]	strawberry appearance (colour), FIG. 2C [1]	strawberry appearance (colour), FIG. 2D [1]	strawberry appearance (colour), FIG. 2E [1]	strawberry appearance (colour), FIG. 2F [1]	cherry tomato appearance (colour), FIG. 3B / FIG. 3D [2]	cherry tomato ripening stage [2]	strawberry appearance (colour), FIG. 4A [3]	strawberry appearance (colour), FIG. 4B [3]	strawberry appearance (colour), FIG. 4C [3]	strawberry appearance (colour), FIG. 4D [3]	strawberry appearance (colour), FIG. 4E [3]	strawberry appearance (colour), FIG. 4F [3]	also measured
CCc1cccc(C)c1NC(=O)c1ccn(CC)n1 [1-ethyl-N-(2-ethyl-6-methylphenyl)-1H pyrazole-3-carboxamide]	no obvious effect on fruit ripening																	
CC1=CC(=O)CC(C)(C)[C@@]1(O)/C=C/C(C)=C\C(=O)O [ABA, abscisic acid, reference compound]		stimulated strawberry fruit ripening	11	white with a greenish tint	white	with more pink	reddish	mostly red	red allover	red	fully ripen (red stage)	white or greenish white	with some pink	pink/red	reddish	red	red with some white at the top	fruit began/started to turn red (start of ripening) [1, 5]: 9 DAT
CCn1cc(Br)c(C(=O)Nc2ccccc2C(C)(C)C)n1 [4-bromo-N-(2-tert-butylphenyl)-1-ethyl-1H-pyrazole-3-carboxamide]	a lower effect on fruit ripening than CAD																	
CCn1ccc(C(=O)Nc2ccc(Br)cc2)n1 [N-(4-bromophenyl)-1-ethyl-1H-pyrazole-3-carboxamide]	has an effect on fruit ripening; also recorded: promoted strawberry fruit ripening, although not as effectively as CAD																	
CCc1cc(Br)ccc1NC(=O)c1ccn(CC)n1 [CAD, N-(4-bromo-2-ethylphenyl)-1-ethyl-1H-pyrazole-3-carboxamide]		stimulated strawberry fruit ripening	9	white have a pink tint	with pink spots	mostly red	red	red allover	red allover	dark red	fully ripen (red stage)	with a pink tint	mostly light red; also recorded: showed some color	red and ripe	red	bright red	red allover	delaying seed germination [4]: can delay seed germination; cherry tomato ripening compared to mock-treated or untreated cherry tomatoes ([2]; CAD injected in 0.1% TRITON X-100): hastening of cherry tomato ripening; also recorded: promoted fruit ripening of climacteric tomatoes; ripened before strawberries injected with 200 μM ABA ([3]; strawberries injected with 10 μM CAD in TRITON-X100 14 days after pollination): at least two
